Results published in BindingDB's records for doi:10.1124/jpet.104.074146 (Meiji Seika Kaisha, 2005).

Assays:
Progesterone receptor = molecular target: T1, Progesterone receptor (Homo sapiens, UniProt P06401)
T1 sequence (P06401 whole entry): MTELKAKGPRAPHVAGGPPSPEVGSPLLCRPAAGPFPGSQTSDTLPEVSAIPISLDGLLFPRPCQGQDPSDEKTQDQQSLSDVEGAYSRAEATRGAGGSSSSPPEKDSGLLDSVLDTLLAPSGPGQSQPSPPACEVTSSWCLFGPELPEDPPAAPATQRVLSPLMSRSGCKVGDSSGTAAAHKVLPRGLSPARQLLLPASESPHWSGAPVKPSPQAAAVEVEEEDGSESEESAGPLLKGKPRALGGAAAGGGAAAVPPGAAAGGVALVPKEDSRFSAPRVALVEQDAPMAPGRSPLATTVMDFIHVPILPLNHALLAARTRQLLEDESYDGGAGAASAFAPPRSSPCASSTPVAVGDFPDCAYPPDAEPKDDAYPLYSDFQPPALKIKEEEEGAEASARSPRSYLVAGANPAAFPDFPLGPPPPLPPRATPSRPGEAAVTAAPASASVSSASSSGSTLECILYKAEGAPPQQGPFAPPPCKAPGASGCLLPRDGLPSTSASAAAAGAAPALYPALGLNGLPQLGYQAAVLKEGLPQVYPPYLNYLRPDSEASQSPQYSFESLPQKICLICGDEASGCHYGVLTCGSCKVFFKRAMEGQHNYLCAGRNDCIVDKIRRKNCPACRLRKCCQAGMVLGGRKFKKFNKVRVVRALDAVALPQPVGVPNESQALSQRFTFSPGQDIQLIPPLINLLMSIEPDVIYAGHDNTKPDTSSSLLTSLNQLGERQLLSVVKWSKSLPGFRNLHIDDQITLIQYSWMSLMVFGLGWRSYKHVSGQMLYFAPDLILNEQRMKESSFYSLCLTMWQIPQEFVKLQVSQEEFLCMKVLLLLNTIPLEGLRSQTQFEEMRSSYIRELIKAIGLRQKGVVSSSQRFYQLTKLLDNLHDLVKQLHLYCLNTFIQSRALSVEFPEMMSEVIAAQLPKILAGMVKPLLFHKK

Estrogen receptor = molecular target: T2, Estrogen receptor (Homo sapiens, UniProt P03372)
T2 sequence (P03372 whole entry): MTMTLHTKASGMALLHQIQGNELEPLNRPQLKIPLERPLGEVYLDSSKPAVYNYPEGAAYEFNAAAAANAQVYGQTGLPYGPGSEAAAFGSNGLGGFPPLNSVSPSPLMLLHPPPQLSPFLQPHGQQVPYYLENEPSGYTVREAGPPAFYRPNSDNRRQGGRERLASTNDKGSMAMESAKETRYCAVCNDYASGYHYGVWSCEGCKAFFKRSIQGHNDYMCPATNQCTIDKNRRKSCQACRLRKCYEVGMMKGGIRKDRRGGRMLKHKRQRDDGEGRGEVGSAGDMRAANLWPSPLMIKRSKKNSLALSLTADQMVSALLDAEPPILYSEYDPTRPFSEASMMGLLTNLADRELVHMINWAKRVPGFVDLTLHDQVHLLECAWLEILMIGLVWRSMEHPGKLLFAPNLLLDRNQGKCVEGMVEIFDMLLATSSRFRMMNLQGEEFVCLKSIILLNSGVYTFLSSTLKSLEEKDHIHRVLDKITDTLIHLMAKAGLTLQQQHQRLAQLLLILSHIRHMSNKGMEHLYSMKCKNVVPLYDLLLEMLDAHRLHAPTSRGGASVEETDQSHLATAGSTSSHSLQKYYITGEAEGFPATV

Glucocorticoid receptor = molecular target: T3, Glucocorticoid receptor (Homo sapiens, UniProt P04150)
T3 sequence (P04150 whole entry): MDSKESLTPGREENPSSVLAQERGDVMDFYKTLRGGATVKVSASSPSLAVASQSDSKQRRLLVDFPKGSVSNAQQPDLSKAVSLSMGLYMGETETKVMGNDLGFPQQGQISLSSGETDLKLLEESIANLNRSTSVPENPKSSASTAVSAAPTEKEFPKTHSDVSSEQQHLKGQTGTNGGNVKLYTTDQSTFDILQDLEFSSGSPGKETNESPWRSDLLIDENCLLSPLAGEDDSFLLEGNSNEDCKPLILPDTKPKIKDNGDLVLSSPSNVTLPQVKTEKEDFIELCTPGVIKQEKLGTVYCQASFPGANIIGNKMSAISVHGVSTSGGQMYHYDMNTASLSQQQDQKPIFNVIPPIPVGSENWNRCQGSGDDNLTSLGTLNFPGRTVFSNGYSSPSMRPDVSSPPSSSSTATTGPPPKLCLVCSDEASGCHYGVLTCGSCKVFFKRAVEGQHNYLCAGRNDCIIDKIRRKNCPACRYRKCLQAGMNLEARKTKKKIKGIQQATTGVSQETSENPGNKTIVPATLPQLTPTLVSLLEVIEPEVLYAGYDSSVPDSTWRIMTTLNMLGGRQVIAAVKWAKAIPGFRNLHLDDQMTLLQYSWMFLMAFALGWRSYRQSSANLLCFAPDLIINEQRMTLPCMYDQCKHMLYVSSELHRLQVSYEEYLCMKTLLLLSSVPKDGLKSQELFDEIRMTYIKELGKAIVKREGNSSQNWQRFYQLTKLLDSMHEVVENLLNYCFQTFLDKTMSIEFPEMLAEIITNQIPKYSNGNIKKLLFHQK

Androgen receptor = molecular target: T4, Androgen receptor (Rattus norvegicus, UniProt P15207)
T4 sequence (P15207 whole entry): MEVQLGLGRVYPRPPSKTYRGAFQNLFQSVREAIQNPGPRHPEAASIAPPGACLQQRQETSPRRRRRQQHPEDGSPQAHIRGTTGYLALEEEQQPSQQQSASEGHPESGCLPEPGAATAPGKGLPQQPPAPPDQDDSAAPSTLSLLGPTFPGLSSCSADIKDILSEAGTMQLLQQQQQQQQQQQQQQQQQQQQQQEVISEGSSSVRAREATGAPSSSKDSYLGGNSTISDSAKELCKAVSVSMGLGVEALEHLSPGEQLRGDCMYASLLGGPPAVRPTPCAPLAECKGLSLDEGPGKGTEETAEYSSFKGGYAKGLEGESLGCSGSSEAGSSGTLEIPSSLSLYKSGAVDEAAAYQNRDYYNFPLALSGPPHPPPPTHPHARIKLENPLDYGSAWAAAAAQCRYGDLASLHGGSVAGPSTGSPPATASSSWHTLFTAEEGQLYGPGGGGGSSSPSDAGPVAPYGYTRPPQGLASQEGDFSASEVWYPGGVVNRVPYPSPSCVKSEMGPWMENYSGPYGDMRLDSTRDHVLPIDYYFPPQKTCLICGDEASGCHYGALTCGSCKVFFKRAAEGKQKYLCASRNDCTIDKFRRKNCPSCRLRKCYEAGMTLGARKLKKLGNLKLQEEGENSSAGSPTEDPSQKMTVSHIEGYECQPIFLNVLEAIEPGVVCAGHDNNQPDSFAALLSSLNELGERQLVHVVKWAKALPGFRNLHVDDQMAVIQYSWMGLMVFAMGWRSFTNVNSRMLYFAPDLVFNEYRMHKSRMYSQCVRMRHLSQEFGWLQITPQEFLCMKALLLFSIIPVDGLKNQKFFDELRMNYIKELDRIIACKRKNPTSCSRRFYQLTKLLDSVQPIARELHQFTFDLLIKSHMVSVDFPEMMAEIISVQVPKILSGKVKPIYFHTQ

Row | IC50 (Progesterone receptor) | IC50 (Estrogen receptor) | Ki (Glucocorticoid receptor) | IC50 (Androgen receptor) | SMILES
1 | 0.04 µM | > 10 µM | > 10 µM | 9.7 µM | CNC(=O)OC1C[C@]2(C)C(=CC1O)C=C1C(=C(C)C(=O)N1C)[C@H]2C (stereo partly drawn) [CP8863]
2 | 0.025 µM | > 10 µM | > 5 µM |  | COC1C=C2C=C3C(=C(C)C(=O)N3C)[C@@H](C)[C@]2(C)CC1OC(=O)N(C)C (stereo partly drawn) [CP8816]
3 |  |  | 0.043 µM |  | CC(=O)OC1(C(C)=O)CCC2C3CC(C)C4=CC(=O)CCC4(C)C3CCC21C (stereo not drawn) [NSC_4042]
